Test results taken from ChEMBL document CHEMBL1201862, “PubChem BioAssay data set” (2004).
Activity calls are given as the source filed them.

Legend:
[1] = target: T1, High affinity choline transporter 1 (Homo sapiens, UniProt Q9GZV3); test: human choline transporter blockers, potency – cell-based, 5-point CRC, membrane potential dye, dose response (AID 504840); assay type: functional
T1 sequence (Q9GZV3 whole entry): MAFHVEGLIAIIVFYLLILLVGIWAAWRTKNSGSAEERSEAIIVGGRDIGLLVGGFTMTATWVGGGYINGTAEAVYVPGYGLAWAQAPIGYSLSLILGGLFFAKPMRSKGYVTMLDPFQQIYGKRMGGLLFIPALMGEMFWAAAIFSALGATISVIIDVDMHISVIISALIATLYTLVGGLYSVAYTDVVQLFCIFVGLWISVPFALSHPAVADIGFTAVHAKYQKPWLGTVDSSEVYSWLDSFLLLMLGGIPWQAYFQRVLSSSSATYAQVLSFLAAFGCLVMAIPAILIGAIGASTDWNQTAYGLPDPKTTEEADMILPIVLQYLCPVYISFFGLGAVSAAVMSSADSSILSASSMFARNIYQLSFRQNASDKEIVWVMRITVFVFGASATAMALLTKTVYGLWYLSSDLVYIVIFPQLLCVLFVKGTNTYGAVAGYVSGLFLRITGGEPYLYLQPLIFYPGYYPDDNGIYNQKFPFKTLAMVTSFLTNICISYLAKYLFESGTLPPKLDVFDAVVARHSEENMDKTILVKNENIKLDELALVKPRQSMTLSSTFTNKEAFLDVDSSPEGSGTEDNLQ

[2] = target: T2, Fatty acid synthase (Homo sapiens, UniProt P49327); test: inhibition of human FAS-TE enzyme activity – biochemical, endpoint fluorescence intensity, uHTS hits, dose response (AID 624327); assay type: functional;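 note: fluorescence from hydrolysis of an O-methyl fluorescein acyl ester substrate by the enzyme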
[3] = target: T3, Low molecular weight phosphotyrosine protein phosphatase (Homo sapiens, UniProt P24666); assay type: functional; details: read-out: IC50_Mean;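 note: Dose-response confirmation assay measuring inhibition of LMPTP enzyme activity by fluorescence intensity read-out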
T3 sequence (P24666 whole entry): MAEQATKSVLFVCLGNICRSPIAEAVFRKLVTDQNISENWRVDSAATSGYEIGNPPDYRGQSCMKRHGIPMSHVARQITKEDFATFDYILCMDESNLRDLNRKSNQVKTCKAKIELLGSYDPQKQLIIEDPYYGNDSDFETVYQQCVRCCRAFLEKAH

[4] = target: T2, Fatty acid synthase; test: inhibition of human FAS-TE enzyme activity – biochemical, kinetic fluorescence intensity, dose response (AID 624326); assay type: functional;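 note: rate of fluorescence rise from hydrolysis of a fluorogenic O-methyl fluorescein ester substrate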
[5] = target: Prothrombin (Homo sapiens, UniProt P00734); test: Thrombin 1536 HTS Dose Response Confirmation. [Related pubchem assays: 1046 (Thrombin 1536 HTS; hits were confirmed in this assay)]; assay type: functional
[6] = target: T4, Sentrin-specific protease 8 (Homo sapiens, UniProt Q96LD8); assay type: functional
T4 sequence (Q96LD8 whole entry): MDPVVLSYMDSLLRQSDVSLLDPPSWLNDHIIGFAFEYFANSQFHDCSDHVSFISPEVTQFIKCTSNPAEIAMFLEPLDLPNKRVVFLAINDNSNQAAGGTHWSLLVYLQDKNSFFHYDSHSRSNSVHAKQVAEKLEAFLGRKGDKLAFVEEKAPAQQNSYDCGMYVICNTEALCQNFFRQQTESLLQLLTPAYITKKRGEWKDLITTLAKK

[7] = target: T4, Sentrin-specific protease 8; assay type: functional; remark: listed apart in the source
[8] = A Cell Based Secondary Assay To Explore Cytotoxicity of Compounds that Sensitize Mycobacterium Tuberculosis to Beta-Lactam Antibiotics.; assay type: functional
[9] = target: T5, Streptokinase A (Streptococcus pyogenes serotype M1, UniProt P10520); test: viability-normalized secreted streptokinase activity reduction – plasminogen activation absorbance, OD405, dose response (AID 1914); assay type: functional, Streptococcus pyogenes M1 GAS;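 note: secreted streptokinase activity via plasminogen activation per viability signal from cell pellet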
T5 sequence (P10520 whole entry): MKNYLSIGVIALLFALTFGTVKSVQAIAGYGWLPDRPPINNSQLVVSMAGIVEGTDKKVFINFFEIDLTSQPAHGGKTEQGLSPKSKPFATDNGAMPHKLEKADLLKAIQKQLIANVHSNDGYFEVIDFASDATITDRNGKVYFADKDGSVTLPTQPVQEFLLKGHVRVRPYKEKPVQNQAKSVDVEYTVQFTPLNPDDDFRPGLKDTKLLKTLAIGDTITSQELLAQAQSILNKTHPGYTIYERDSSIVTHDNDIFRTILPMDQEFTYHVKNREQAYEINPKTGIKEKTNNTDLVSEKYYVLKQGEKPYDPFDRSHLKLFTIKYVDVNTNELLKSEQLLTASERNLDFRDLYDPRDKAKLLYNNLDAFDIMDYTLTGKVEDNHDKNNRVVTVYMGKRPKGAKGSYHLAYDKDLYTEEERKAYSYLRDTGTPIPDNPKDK

[10] = target: T6, Heat shock factor protein 1 (Mus musculus, UniProt P38532); test: enhancement of HSF1-driven luciferase signal – cell-based, NIH3T3, luminescence, dose retest, confirmation (AID 435004); assay type: functional;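 note: stress induced by proteasome inhibitor MG132 added 30 min after compound; luciferase reporter driven by HSF1 response element in NIH3T3 cells; actives raise luminescence as potentiators of the MG132 stress response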
T6 sequence (P38532 whole entry): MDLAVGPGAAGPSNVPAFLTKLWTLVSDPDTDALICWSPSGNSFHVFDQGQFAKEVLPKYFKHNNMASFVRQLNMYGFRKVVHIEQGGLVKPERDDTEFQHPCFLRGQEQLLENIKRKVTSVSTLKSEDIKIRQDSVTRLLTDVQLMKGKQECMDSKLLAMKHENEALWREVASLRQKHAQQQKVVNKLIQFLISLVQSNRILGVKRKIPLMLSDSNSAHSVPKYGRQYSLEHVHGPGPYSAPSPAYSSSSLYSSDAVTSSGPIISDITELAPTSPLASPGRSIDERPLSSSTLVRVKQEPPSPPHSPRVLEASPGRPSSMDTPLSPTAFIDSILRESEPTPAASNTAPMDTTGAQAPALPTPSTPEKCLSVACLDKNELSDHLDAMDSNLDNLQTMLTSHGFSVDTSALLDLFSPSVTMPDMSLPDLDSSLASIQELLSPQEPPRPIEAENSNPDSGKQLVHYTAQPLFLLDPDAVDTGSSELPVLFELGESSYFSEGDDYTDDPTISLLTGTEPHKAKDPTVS

[11] = viability of uninfected HEp-2 cells – cell-based, HTS, cytotoxicity control for RSV inhibitor project, dose response (AID 2410); assay type: functional; details: human respiratory syncytial virus
[12] = cells
[13] = system: Streptococcus; test: GAS UMAA2166 growth inhibition – luminescence, BacTiterGlo, counter-screen for streptokinase expression inhibitor project, dose response (AID 1915); assay type: functional, organism-based;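 note: potency for reduction of bacterial viability or growth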
[14] = system: Streptococcus sp. 'group A'; test: Streptococcus pyogenes SK(-)GAS viability under kanamycin – luminescence, BacTiterGlo, confirmation, counter-screen for streptokinase expression inhibitor project, dose response (AID 1900); assay type: functional, organism-based
[15] = target: T7, Carboxy-terminal domain RNA polymerase II polypeptide A small phosphatase 1 (Homo sapiens, UniProt Q9GZU7); test: CTDSP1 inhibitors, concentration-response, biochemical, absorbance readout, ultra-high-throughput screen actives (AID 540297); assay type: functional
T7 sequence (Q9GZU7 whole entry): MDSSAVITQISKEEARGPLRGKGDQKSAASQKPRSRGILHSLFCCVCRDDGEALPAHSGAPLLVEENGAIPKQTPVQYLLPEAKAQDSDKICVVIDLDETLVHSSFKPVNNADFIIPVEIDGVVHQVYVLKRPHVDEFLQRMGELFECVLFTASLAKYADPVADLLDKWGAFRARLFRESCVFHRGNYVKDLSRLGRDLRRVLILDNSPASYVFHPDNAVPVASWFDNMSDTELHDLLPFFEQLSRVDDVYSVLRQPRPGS

[16] = Luminescence Cell-Based Dose Retest to Confirm Inhibitors of Cancer Stem Cells. [Related pubchem assays (depositor defined):AID2717, AID2721]; assay type: functional; details: Homo sapiens
[17] = target: T8, Aminopeptidase N (Plasmodium falciparum FcB1/Columbia, UniProt O96935); test: malaria alanyl aminopeptidase activity blockers – biochemical, fluorogenic H-Leu-NHMec substrate, 1536-well (AID 1445); parameters: species or system Plasmodium falciparum 3D7, 3D7
T8 sequence (O96935 whole entry): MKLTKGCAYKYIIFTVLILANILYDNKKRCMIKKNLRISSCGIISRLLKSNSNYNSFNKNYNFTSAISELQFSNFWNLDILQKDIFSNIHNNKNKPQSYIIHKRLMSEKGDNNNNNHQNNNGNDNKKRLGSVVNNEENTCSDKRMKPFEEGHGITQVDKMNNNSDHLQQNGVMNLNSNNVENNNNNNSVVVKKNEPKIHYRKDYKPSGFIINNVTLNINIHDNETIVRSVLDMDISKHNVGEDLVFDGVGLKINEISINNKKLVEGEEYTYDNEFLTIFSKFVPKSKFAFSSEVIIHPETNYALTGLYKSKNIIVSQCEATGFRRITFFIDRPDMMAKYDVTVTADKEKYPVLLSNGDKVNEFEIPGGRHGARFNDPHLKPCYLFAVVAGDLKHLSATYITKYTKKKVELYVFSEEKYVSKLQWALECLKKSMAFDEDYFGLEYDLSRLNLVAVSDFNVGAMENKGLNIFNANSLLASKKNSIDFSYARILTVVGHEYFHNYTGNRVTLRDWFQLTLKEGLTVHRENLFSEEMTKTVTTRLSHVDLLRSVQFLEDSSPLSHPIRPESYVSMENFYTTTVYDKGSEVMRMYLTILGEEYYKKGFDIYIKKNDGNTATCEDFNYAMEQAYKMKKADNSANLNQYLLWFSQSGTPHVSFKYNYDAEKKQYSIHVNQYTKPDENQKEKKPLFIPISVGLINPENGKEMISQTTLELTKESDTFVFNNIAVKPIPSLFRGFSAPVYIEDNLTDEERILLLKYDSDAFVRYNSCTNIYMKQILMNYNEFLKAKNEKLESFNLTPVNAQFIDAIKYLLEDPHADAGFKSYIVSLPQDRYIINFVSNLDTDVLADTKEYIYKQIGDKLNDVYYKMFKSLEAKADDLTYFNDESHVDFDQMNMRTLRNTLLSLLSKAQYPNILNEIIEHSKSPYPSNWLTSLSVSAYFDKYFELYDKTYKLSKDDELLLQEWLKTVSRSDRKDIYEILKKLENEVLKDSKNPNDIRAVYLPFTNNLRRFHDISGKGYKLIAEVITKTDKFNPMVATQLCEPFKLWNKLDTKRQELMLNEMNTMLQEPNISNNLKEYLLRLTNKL

[18] = target: T9, Long-chain-fatty-acid--AMP ligase FadD28 (Mycobacterium tuberculosis, UniProt P9WQ59); test: Fluorescence polarization aasay to screen for inhibitors that compete for the binding of FadD28 to a bisubstrate Measured in Biochemical System Using Plate Reader - 2147-01_Inhibitor_Dose_CherryPick_Activity.; assay type: functional, Mycobacterium tuberculosis H37Rv
T9 sequence (P9WQ59 whole entry): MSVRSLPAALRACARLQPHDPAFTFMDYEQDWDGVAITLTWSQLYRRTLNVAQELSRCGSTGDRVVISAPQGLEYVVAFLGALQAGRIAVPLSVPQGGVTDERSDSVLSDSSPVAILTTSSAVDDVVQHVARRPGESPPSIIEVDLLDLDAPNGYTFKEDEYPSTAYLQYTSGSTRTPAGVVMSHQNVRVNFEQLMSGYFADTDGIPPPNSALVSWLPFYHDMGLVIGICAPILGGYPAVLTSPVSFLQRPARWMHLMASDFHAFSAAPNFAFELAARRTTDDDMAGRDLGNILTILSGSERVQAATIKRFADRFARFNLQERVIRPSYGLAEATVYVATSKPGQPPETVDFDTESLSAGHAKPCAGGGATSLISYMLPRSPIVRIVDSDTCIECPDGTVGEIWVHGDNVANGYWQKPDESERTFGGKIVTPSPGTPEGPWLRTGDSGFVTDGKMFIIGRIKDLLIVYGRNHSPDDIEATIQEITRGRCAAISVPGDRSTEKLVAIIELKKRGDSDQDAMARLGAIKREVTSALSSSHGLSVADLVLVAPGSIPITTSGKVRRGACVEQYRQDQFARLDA

T2 sequence (P49327 whole entry): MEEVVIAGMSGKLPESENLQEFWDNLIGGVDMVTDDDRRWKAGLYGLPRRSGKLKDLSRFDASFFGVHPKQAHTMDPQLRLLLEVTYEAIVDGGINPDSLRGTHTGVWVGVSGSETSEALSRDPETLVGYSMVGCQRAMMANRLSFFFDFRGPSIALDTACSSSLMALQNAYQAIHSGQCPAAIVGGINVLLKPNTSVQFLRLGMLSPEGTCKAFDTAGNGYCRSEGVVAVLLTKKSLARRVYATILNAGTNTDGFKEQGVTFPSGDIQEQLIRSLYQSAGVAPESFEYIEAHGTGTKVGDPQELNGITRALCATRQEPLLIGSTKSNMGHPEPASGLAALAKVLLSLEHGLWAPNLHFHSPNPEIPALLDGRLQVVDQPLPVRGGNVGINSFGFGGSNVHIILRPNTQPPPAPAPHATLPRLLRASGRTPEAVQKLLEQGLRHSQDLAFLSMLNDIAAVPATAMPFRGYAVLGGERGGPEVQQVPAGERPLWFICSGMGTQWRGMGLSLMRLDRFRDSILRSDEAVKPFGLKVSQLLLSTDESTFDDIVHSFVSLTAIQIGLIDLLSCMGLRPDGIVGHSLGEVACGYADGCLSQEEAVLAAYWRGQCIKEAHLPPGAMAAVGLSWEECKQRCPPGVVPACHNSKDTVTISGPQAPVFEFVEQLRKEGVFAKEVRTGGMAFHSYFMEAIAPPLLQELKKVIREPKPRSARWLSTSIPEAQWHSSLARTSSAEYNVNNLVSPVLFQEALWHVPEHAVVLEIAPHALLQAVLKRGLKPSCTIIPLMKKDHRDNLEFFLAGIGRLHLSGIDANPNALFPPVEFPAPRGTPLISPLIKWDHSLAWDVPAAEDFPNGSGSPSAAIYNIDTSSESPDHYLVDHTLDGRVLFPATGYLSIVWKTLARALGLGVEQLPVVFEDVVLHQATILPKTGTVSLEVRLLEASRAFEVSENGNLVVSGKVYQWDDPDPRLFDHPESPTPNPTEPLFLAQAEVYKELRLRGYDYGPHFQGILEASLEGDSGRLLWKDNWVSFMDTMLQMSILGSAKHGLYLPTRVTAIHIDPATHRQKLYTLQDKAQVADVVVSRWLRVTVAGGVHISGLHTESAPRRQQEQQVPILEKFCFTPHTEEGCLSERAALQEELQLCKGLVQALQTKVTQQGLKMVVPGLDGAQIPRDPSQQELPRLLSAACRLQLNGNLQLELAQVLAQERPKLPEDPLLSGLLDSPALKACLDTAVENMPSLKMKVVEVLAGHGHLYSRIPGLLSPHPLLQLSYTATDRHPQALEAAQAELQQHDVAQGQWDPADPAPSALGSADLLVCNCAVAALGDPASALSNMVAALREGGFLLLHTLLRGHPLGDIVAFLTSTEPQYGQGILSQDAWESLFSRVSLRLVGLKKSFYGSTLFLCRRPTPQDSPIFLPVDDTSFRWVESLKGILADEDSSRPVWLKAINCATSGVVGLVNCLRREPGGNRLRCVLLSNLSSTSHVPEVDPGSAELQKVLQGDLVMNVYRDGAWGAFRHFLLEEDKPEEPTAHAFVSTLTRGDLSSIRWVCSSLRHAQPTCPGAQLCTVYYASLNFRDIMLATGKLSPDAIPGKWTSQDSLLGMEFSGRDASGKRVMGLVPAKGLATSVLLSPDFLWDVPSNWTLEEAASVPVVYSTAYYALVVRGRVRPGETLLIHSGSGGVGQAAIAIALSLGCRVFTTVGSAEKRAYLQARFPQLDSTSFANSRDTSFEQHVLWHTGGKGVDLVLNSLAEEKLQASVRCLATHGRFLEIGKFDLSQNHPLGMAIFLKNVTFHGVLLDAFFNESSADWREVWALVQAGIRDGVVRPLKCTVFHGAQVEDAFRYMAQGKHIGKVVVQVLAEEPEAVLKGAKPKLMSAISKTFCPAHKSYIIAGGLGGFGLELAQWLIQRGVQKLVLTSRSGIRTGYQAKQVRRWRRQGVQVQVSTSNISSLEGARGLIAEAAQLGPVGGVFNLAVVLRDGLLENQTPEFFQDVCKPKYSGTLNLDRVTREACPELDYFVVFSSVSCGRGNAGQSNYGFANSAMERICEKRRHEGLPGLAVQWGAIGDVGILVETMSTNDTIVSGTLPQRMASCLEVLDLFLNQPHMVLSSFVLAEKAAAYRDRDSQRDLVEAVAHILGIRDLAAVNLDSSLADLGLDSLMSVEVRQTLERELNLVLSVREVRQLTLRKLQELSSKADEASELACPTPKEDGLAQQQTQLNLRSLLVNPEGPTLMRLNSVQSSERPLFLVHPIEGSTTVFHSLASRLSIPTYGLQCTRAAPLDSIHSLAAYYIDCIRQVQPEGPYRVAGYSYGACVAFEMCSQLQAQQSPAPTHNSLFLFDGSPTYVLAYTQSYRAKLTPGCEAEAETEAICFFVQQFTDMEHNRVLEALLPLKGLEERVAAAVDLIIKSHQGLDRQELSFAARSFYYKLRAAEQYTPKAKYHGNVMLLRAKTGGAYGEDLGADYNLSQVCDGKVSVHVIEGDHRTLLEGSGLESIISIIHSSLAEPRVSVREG

SMILES: C/C(=N\NS(=O)(=O)c1ccc(Cl)c([N+](=O)[O-])c1)c1cc2ccccc2o1
- IC50 [1]: 4.37 µM (active)
- IC50 [2]: 12.3 µM (active)
- IC50 [3]: 80 µM (inactive)
- IC50 [4]: 15.6 µM (active)

SMILES: O=C(COC(=O)c1cc(Br)ccc1O)Nc1cc(S(=O)(=O)N2CCCC2)ccc1Cl
- IC50 [5]: 7.17 µM (active)

SMILES: Cc1cc(=O)n(-c2ccc3ccccc3n2)[nH]1
- IC50 [6]: 24.2 µM (active)
- IC50 [7]: 30.4 µM (active)

SMILES: CC1OC(O[C@H]2CC[C@]3(C)C4C=C[C@]56OC[C@@]7(CC[C@@H](C)[C@H](C)C75)[C@H](O)C[C@@]6(C)[C@]4(C)CC[C@H]3C2(C)C)C(OC2OC(CO)C(O)C(O)C2OC2OCC(O)C(O)C2O)C(O)C1O (stereo partly specified)
- IC50 [5]: > 50 µM (not active)

SMILES: Cc1cn([C@@H](CCCCNC(=O)OC(C)(C)C)C(=O)NCCCCCCCCCCC(=O)N2CCN(C(=O)OC(C)(C)C)CC2)nn1
- CC50 [8]: 37.6 µM (active)

SMILES: Cc1[nH][nH]c(=O)c1C(c1c(C)[nH][nH]c1=O)c1cn(Cc2ccc(Cl)c(Cl)c2)c2ccccc12
- IC50 [6]: 5.81 µM (active)
- EC50 [9]: 10.1 µM (active)
- IC50 [7]: 6.19 µM (active)
- EC50 [10]: 27 µM (active)

SMILES: COc1ccccc1-n1c(C)cc(/C=C2/C(=N)N3C(=NC2=O)SN=C3S(C)(=O)=O)c1C
- CC50 [11]: 19.8 µM (active)
- IC50 [12]: 11.4 µM (active)

SMILES: Cc1c(NC(=O)CSc2nnc3c4ccccc4n(CCc4ccccc4)c3n2)c(=O)n(-c2ccccc2)n1C
- CC50 [11]: 4.56 µM (active)
- EC50 [10]: 24.1 µM (active)
- IC50 [12]: 3.31 µM (active)

SMILES: O=C(Nc1ccc(Cl)c(Cl)c1)C1CC(=O)N(c2ccc(Br)cc2)C1 (stereo unspecified)
- IC50 [5]: > 50 µM (not active)
- EC50 [13]: 11.9 µM (active)
- EC50 [9]: 20.1 µM (active)
- EC50 [14]: 5.25 µM (active)

SMILES: Nc1[nH]cnc2nc(SCCN3CCCCC3)nc1-2
- IC50 [5]: > 50 µM (not active)

SMILES: O=C(O)c1ccc(Nc2nc(-c3ccc([N+](=O)[O-])cc3)nc3ccccc23)cc1
- IC50 [15]: 4.57 µM (active)
- IC50 [3]: 10.9 µM (active)

SMILES: C/C(=N\NC(=O)c1cccc(Cl)c1)C1C(=O)c2ccccc2C1=O
- AC50 [16]: 10.7 µM (active)
- IC50 [17]: 40.8 µM (active)
- AC50 [18]: 68.6 µM (active)

SMILES: Cc1ccc(C2CC(=O)NC(SCC(=O)Nc3nccs3)=C2C#N)cc1 (stereo unspecified)
- AC50 [18]: 51.5 µM (active)

SMILES: COC(=O)c1cc(C)nc2c(C)cc3[nH]c4ccccc4c3c12
- CC50 [8]: > 40 µM (active)
- CC50 [11]: 15 µM (active)
